Structures can show the parent of a compound that is named as a salt.

Data set [1] is described as follows: DTT-induced drug/neurotransmitter release study (HPLC). The settings on record: for release within 24 hours as share of total release seen in 3 days: from CdS-capped MSN after 18.5 mM DTT; for amount released after 3 days of DTT-induced uncapping / encapsulated molecule released after 3 days of DTT-induced uncapping: from CdS-capped MSN, PBS pH 7.4. It is filed as physicochemical. On the procedure:
CdS-capped MSN with vancomycin or ATP (10.00 mg) material was dispersed in 1.50 mL of PBS buffer (pH 7.4), followed by repeating wash/sonication/centrifugation cycles for five times to remove physisorbed, uncapped vancomycin or ATP molecules on the exterior surface of the material. The purified MSN/drug composite was redispersed in 3.50 mL of PBS buffer (pH 7.4). Aliquots were taken every 4 hours over a time period of 12 hours from the MSN/water suspension and injected to an analytical HPLC system (Hitachi LC/3DQMS with a reverse phase C18 column (Vydac), 0.4 cm×25 cm) to monitor the leaching of the mesoporous channel encapsulated vancomycin or ATP molecules. After 12 hours, dithiothreitol (DTT, 18.50 mM) was added to the suspension to cleave the disulfide linkage between the CdS nanoparticle and the MSN. The kinetic profiles of the DTT-induced release of vancomycin and ATP were monitored by following two literature-reported HPLC separation conditions. The peaks/areas at 280 and 258 nm were monitored/integrated for the quantitative analysis of amounts of released vancomycin and ATP, respectively. See Farin et al., J. Pharm. Biomed. Anal. 1998, 18:367; and Veciana-Nogues et al., Food Chem. 1997, 59:467.

Data set [2] in a line: Loading of vancomycin and ATP into linker-MSN with CdS capping, HPLC of filtrate. It is filed as physicochemical. The settings on record: for loading efficiency: CdS-capped linker-MSN; for amount of mesopore-encapsulated molecule: per 100.0 mg of linker-MSN material, from concentration decrease in filtrate. As to the method:
Purified linker-MSN material from sub-part (b) below (100.00 mg) was incubated in a PBS buffer solution (0.60 mL, pH 7.4) of ATP or vancomycin (3.00 μmol in both cases) for 24 hours. Mercaptoacetic acid-functionalized CdS nanoparticles from sub-part (c) below (0.15 mmol) were dissolved in 2.00 mL of PBS buffer with vancomycin or ATP (0.01 mmol in both cases); 1-[3-(dimethylamino)propyl]-3-ethylcarbodiimide hydrochloride (EDC) (57.50 mg, 0.30 mmol) was added to the CdS/drug solution. The reaction mixture was allowed to stir for 24 hours, followed by centrifuging the suspension at 12,000 rpm for 3 minutes. The resulting precipitates (ATP- or vancomycin-loaded, CdS-capped MSNs) were isolated and dried under vacuum.
The water-soluble CdS nanocrystals (average particle diameter of 2.0 nm) with mercaptoacetic acid groups were covalently captured and formed amide bonds by reacting with the mesopore surface-bound 2-(propyldisulfanyl)ethylamine linkers of the MSN/drug composite material in aqueous solutions. The resulting reaction suspensions were centrifuged, and the CdS-capped MSN/drug composite materials along with the unreacted CdS nanoparticles were filtered. The concentrations of the free vancomycin and ATP molecules in the filtrate were then determined by HPLC. The calculated concentration decreases of solution vancomycin and ATP were attributed to the amounts of mesopore-encapsulated vancomycin (2.5 μmol) and ATP (4.7 μmol) per 100.0 mg of linker-MSN material. These numbers correspond to ca. 83.9 and 30.3 mol % loading efficiency, respectively.

The next data set deals with type-1 astrocytes. Kind of data set: Intracellular calcium imaging (Fura-2) of astrocyte cultures. The settings on record: no MSNs.
The subject of data set [3] is tobacco mesophyll protoplasts. As to the kind of experiment: Endocytosis experiments with tobacco mesophyll protoplasts (Example 11). It is filed as cell-based, Nicotiana tabacum. As to conditions: 1 mM LYCH, overnight in W5. On the procedure: Tobacco protoplasts were mixed with MSN in W5 media (Spangenberg et al., supra) using 10^6 cells for 10 μg of MSN. The mix was incubated overnight in 3 mL of W5 in BD Falcon 6-well flat-bottom plates. To remove non-engulfed MSN (except for FIG. 20A), the mixture were overlaid on K4 medium (Spangenberg et al., supra) and centrifuge at 100×g for 10 minutes at room temperature. The protoplasts at the interphase were collected and evaluated. Isolated live cells experiments images were taken using a 63× oil objective with a Leica TCS/NT laser scanning confocal microscope equipped with Argon 488 nm and Krypton 568 nm lasers plus a double dichroic DD488/568 filter. To detect fluorescence in the green channel, a combination of RSP580 and BP525/25 filters was used under wavelength between 500 and 550 nm. For the red channel, wavelength above 590 nm was selected using a LP590 filter. During scanning, pinhole was maintained at 1 for all images. Images were acquired using TCS software and analyzed using ImageJ (Abramoff et al., Biophotonics Int'l 2004, 11:36). Whole tissue images were taken under either bright field or GFP band pass exciter 460-490 nm with emission filter 510-550 nm using an Olympus SHZ10 stereoscope coupled to a SPOT RT color CCD camera (Diagnostic Instrument Inc.). Images were acquired with SPOT software.

A further data set deals with protoplasts. The settings on record: 1-2 mg of DNA per 10^6 cells; cited from earlier work.

Method for type-1 astrocytes: After incubation, tissue was rinsed with EBSS solution and incubated for 5 minutes in trypsin-inhibitor solution (1 mg/mL; Gibco-Invitrogen Co.). After being rinsed, once with EBSS solution and once with culture medium (consisting of α-minimum essential medium (α-MEM; Gibco-Invitrogen Co.) supplemented with 10% heat-inactivated fetal bovine serum (FBS; Gibco-Invitrogen Co.) and 1.00 mL of penicillin-streptomycin solution (Sigma-Aldrich Co.) per 100 mL), the tissue was mechanically dispersed in culture medium by triturating through a fire-polished glass pipet. The cell suspension was transferred to sterile 15-mL centrifuge tubes and spun at 1000 g for 10 minutes. Cell pellets were resuspended in culture medium (α-MEM supplemented with 10% heat-inactivated FBS and 1.00 mL of penicillin-streptomycin solution per 100.00 mL) and plated in culture flasks. […] Culture medium was changed every 2 to 3 days. When mixed cultures reached confluence (9-12 days), the flasks were shaken (260 rpm) for 90 minutes to remove microglia and dividing type I astroglia. After shaking the cells, medium was replaced, and the flasks were incubated for 1 hour to equilibrate with CO2 in the fresh medium. […]
The effect of experimental manipulation on the intracellular calcium concentration ([Ca^2+]i) of cultured cells was evaluated by ratiometric imaging techniques. […]

`Nc1ncnc2c1ncn2[C@@H]1O[C@H](COP(=O)([O-])OP(=O)([O-])OP(=O)(O)O)[C@@H](O)[C@H]1O.[Na+].[Na+]` [ATP, adenosine triphosphate disodium salt]: in data set [1], the “release within 24 hours as share of total release seen in 3 days” value was 85%, the “amount released after 3 days of DTT-induced uncapping” value was 1.3 µmol and the “encapsulated molecule released after 3 days of DTT-induced uncapping” value is reported as 28.2%. In data set [2], the loading efficiency is recorded as around 30.3 mol % and the “amount of mesopore-encapsulated molecule” value is 4.7 µmol. Further, in the data set with type-1 astrocytes (100.0 μM, ME-treated astrocytes), the “change of intracellular [Ca2+]i” value is “obvious increases in [Ca^2+]i”.

As for `OCCS` [ME], the “change of intracellular [Ca2+]i” value in the data set on type-1 astrocytes (perfusion 1.0 mM for 5 minutes) was “no increase in [Ca^2+]i”.

For `CN[C@H](CC(C)C)C(=O)N[C@H]1C(=O)N[C@@H](CC(N)=O)C(=O)N[C@H]2C(=O)N[C@H]3C(=O)N[C@H](C(=O)N[C@H](C(=O)O)c4cc(O)cc(O)c4-c4cc3ccc4O)[C@H](O)c3ccc(c(Cl)c3)Oc3cc2cc(c3O[C@@H]2O[C@H](CO)[C@@H](O)[C@H](O)[C@H]2O[C@H]2C[C@](C)(N)[C@H](O)[C@H](C)O2)Oc2ccc(cc2Cl)[C@H]1O` [vancomycin, Vancomycin hydrochloride], in data set [1], the “release within 24 hours as share of total release seen in 3 days” value came to 85%, the “amount released after 3 days of DTT-induced uncapping” value was 1.6 µmol and the “encapsulated molecule released after 3 days of DTT-induced uncapping” value stood at 53.8%. In data set [2], the loading efficiency result is “ca. 83.9 mol %” and the “amount of mesopore-encapsulated molecule” value stood at 2.5 µmol.

Lucifer Yellow CH, lithium salts: the “protoplasts that underwent endocytosis” value in data set [3] is given as 26±7%.

In the case of “polyethylene glycol [polyethylene glycol (PEG)]”, in the data set with protoplasts, the transient transformation efficiency was 40-90%.

These data come from US8647644B1, “Methods of using capped mesoporous silicates” (Iowa State University Research Foundation, Inc., priority 2006, dated 2014).
